Measured values as given in ChEMBL document CHEMBL1201862, “PubChem BioAssay data set” (2004).
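Test compounds were applied to cells in 96-well plates for 48 hours at 5 doses. GI50: concentration for 50% inhibition of growth.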 Active and inactive are the calls of the source. Rule as the data show it: active = GI50 up to about 1.1 µM and inactive = higher.

What was measured:
Assay in all cases: inhibition of tumour cell growth, NCI panel, 48 h
[1] = tested on: 786-0
[2] = tested on: A498
[3] = tested on: A549
[4] = tested on: ACHN
[5] = tested on: CCRF-CEM
[6] = tested on: COLO 205
[7] = tested on: DLD-1
[8] = tested on: DMS-114
[9] = tested on: EKVX
[10] = tested on: HCC 2998
[11] = tested on: HCT-116
[12] = tested on: HCT-15
[13] = tested on: HL-60
[14] = tested on: HOP-18
[15] = tested on: HOP-62
[16] = tested on: HOP-92
[17] = tested on: HT-29
[18] = tested on: IGROV-1
[19] = tested on: KM-20L2
[20] = tested on: KM12
[21] = tested on: LOX IMVI
[22] = tested on: LXFL 529
[23] = tested on: M14
[24] = tested on: M19-MEL
[25] = tested on: Malme-3M
[26] = tested on: NCI-H226
[27] = tested on: NCI-H23
[28] = tested on: NCI-H460
[29] = tested on: NCI-H522
[30] = tested on: OVCAR-3
[31] = tested on: OVCAR-4
[32] = tested on: OVCAR-5
[33] = tested on: OVCAR-8
[34] = tested on: RXF 393
[35] = tested on: SF-268
[36] = tested on: SF-295
[37] = tested on: SF-539
[38] = tested on: SK-MEL-28
[39] = tested on: SK-MEL-2
[40] = tested on: SK-MEL-5
[41] = tested on: SK-OV-3
[42] = tested on: SN12C
[43] = tested on: SNB-19
[44] = tested on: SNB-75
[45] = tested on: SNB-78
[46] = tested on: SW-620
[47] = tested on: TK-10
[48] = tested on: U-251
[49] = tested on: UACC-257
[50] = tested on: UACC-62
[51] = tested on: UO-31
[52] = tested on: XF498
[53] = tested on: CAKI-1
[54] = tested on: K562
[55] = tested on: MOLT-4
[56] = tested on: RPMI-8226
[57] = tested on: SR

## CCCCCCCCCCCCCCNCC(OCC)OCC
[1]
  GI50: 16.9 µM (inactive)
[2]
  GI50: 14.4 µM (inactive)
[3]
  GI50: 19.4 µM (inactive)
[4]
  GI50: 12.6 µM (inactive)
[5]
  GI50: 4.84 µM (inactive)
[6]
  GI50: 14.4 µM (inactive)
[7]
  GI50: 13.7 µM (inactive)
[8]
  GI50: 12.1 µM (inactive)
[9]
  GI50: 17.7 µM (inactive)
[10]
  GI50: 13.4 µM (inactive)
[11]
  GI50: 11.1 µM (inactive)
[12]
  GI50: 8.47 µM
[13]
  GI50: 2.85 µM (inactive)
[14]
  GI50: 16.6 µM (inactive)
[15]
  GI50: 16.5 µM (inactive)
[16]
  GI50: 11.5 µM (inactive)
[17]
  GI50: 2.86 µM (inactive)
[18]
  GI50: 15.2 µM (inactive)
[19]
  GI50: 10.9 µM (inactive)
[20]
  GI50: 10.3 µM (inactive)
[21]
  GI50: 16.3 µM (inactive)
[22]
  GI50: 15.1 µM (inactive)
[23]
  GI50: 14.1 µM (inactive)
[24]
  GI50: 16.2 µM (inactive)
[25]
  GI50: 17.1 µM (inactive)
[26]
  GI50: 18.4 µM (inactive)
[27]
  GI50: 16.1 µM (inactive)
[28]
  GI50: 17.1 µM (inactive)
[29]
  GI50: 3.66 µM (inactive)
[30]
  GI50: 18.3 µM (inactive)
[31]
  GI50: 13.6 µM (inactive)
[32]
  GI50: 15.3 µM (inactive)
[33]
  GI50: 18.5 µM (inactive)
[34]
  GI50: 10.2 µM (inactive)
[35]
  GI50: 17.3 µM (inactive)
[36]
  GI50: 16.7 µM (inactive)
[37]
  GI50: 16.1 µM (inactive)
[38]
  GI50: 16.9 µM (inactive)
[39]
  GI50: 14.5 µM (inactive)
[40]
  GI50: 13.9 µM (inactive)
[41]
  GI50: 18.6 µM (inactive)
[42]
  GI50: 13.7 µM (inactive)
[43]
  GI50: 16.5 µM (inactive)
[44]
  GI50: 10.4 µM (inactive)
[45]
  GI50: 16.8 µM (inactive)
[46]
  GI50: 15.3 µM (inactive)
[47]
  GI50: 17.4 µM (inactive)
[48]
  GI50: 15.1 µM (inactive)
[49]
  GI50: 16.7 µM (inactive)
[50]
  GI50: 18.1 µM (inactive)
[51]
  GI50: 10.7 µM (inactive)
[52]
  GI50: 13.6 µM (inactive)

## O=C(CCc1nnc2s/c(=C\c3ccc(Cl)c(Cl)c3)c(=O)n12)Nc1ccc(Cl)c(Cl)c1
[1]
  GI50: > 100 µM (inactive)
[2]
  GI50: 39 µM (inactive)
[3]
  GI50: > 100 µM (inactive)
[4]
  GI50: > 100 µM (inactive)
[53]
  GI50: > 100 µM (inactive)
[5]
  GI50: 22.5 µM (inactive)
[6]
  GI50: 56.6 µM (inactive)
[8]
  GI50: 91.2 µM (inactive)
[9]
  GI50: > 100 µM (inactive)
[10]
  GI50: > 100 µM (inactive)
[11]
  GI50: > 100 µM (inactive)
[12]
  GI50: > 100 µM
[13]
  GI50: 22.8 µM (inactive)
[14]
  GI50: 75.7 µM (inactive)
[15]
  GI50: > 100 µM (inactive)
[16]
  GI50: 86.7 µM (inactive)
[17]
  GI50: > 100 µM (inactive)
[18]
  GI50: 44.2 µM (inactive)
[54]
  GI50: 72.8 µM (inactive)
[19]
  GI50: > 100 µM (inactive)
[20]
  GI50: 43.4 µM (inactive)
[21]
  GI50: 19.2 µM (inactive)
[22]
  GI50: 88.1 µM (inactive)
[23]
  GI50: > 100 µM (inactive)
[24]
  GI50: 64.7 µM (inactive)
[55]
  GI50: 20.7 µM (inactive)
[25]
  GI50: > 100 µM (inactive)
[26]
  GI50: > 100 µM (inactive)
[27]
  GI50: > 100 µM (inactive)
[28]
  GI50: > 100 µM (inactive)
[29]
  GI50: 25.1 µM (inactive)
[30]
  GI50: 29.9 µM (inactive)
[31]
  GI50: 73.5 µM (inactive)
[32]
  GI50: > 100 µM (inactive)
[33]
  GI50: 20.4 µM (inactive)
[56]
  GI50: 20.4 µM (inactive)
[34]
  GI50: 28.8 µM (inactive)
[35]
  GI50: 55.5 µM (inactive)
[36]
  GI50: 46.1 µM (inactive)
[37]
  GI50: 51.8 µM (inactive)
[38]
  GI50: > 100 µM (inactive)
[40]
  GI50: 43.9 µM (inactive)
[41]
  GI50: > 100 µM (inactive)
[42]
  GI50: > 100 µM (inactive)
[43]
  GI50: 45 µM (inactive)
[44]
  GI50: 58.3 µM (inactive)
[57]
  GI50: 24.8 µM (inactive)
[46]
  GI50: > 100 µM (inactive)
[47]
  GI50: > 100 µM (inactive)
[48]
  GI50: 36.9 µM (inactive)
[49]
  GI50: > 100 µM (inactive)
[50]
  GI50: > 100 µM (inactive)
[51]
  GI50: > 100 µM (inactive)
[52]
  GI50: 38.7 µM (inactive)
